According to patent US20060063792A1, “Substituted morphinans and methods of their use” (Adolor Corporation, priority 2004, published 2006):

Columns and labels:
μ opioid receptor [1] = target: T1, μ opioid receptor (Homo sapiens, UniProt P35372); experiment: [3H]diprenorphine receptor binding, cloned human μ opioid receptor
T1 construct: expressed in transfected cells
Method: The potencies of the compounds were determined by testing the ability of a range of concentrations of each compound to inhibit the binding of the non-selective opioid antagonist, [^3H]diprenorphine, to the cloned human μ, κ, and δ opioid receptors, expressed in separate cell lines. IC50 values were obtained by nonlinear analysis of the data using GraphPad Prism version 3.00 for Windows (GraphPad Software, San Diego). Ki values were obtained by Cheng-Prusoff corrections of IC50 values.
The receptor binding method (DeHaven and DeHaven-Hudkins, “Characterization of Opioid Receptors”, Current Protocols in Pharmacology (Eds. Enna S J and Williams M) 1.4.1-1.4.12, John Wiley & Sons, Inc., New York (1998)) was a modification of the method of Raynor, et al., Mol. Pharmacol. 45:330-334 (1994). After dilution in buffer A and homogenization as before, membrane proteins (10-80 μg) in 250 μL were added to mixtures containing test compound and [^3H]diprenorphine (0.5 to 1.0 nM, 40,000 to 50,000 dpm) in 250 μL of buffer A in 96-well deep-well polystyrene titer plates (Beckman). […] The filters were rinsed 4 times with 1 mL of cold 50 mM Tris HCl, pH 7.8 and radioactivity remaining on the filters determined by scintillation spectroscopy. Nonspecific binding was determined by the minimum values of the titration curves and was confirmed by separate assay wells containing 10 μM naloxone. Ki values were determined by Cheng-Prusoff corrections of IC50 values derived from nonlinear regression fits of 12 point titration curves using GraphPad Prism® version 3.00 for Windows (GraphPad Software, San Diego, Calif.).
To determine the equilibrium dissociation constant for the inhibitors (Ki), radioligand bound (cpm) in the presence of various concentrations of test compounds was measured. […] The Ki values were then determined from the […] values by the following equation, [formula] where [ligand] is the concentration of radioligand and Kd is the equilibrium dissociation constant for the radioligand.

μ opioid receptor [2] = target: T1, μ opioid receptor; experiment: Inhibition of agonist (loperamide)-stimulated [35S]GTPγS binding to membranes with cloned human μ opioid receptor; assay type: biochemical
Method: The potencies of the antagonists were assessed by their abilities to inhibit agonist-stimulated [^35S]GTPγS binding to membranes containing the cloned human μ, κ, or δ opioid receptors. The agonists used were loperamide for the μ opioid receptor, U50488H for the κ opioid receptor, and BW373U86 for the δ opioid receptor.
To determine the IC50 value, which was the concentration to give half-maximal inhibition of agonist-stimulated [^35S]GTPγS binding, the amount of [^35S]GTPγS bound in the presence of a fixed concentration of agonist and various concentrations of antagonist was measured. The fixed concentration of agonist was the EC80 for the agonist, which was the concentration to give 80% of the relative maximum stimulation of […] binding. The IC50 value was determined from a best nonlinear regression fit of the data to the following equation, [formula] where Y is the amount of [^35S]GTPγS bound at each concentration of antagonist, Bottom is the calculated amount of [^35S]GTPγS bound in the presence of an infinite concentration of antagonist, Top is the calculated amount of [^35S]GTPγS bound in the absence of added antagonist, X is the logarithm of the concentration of antagonist, and LogIC50 is the logarithm of the concentration of antagonist where the amount of [^35S]GTPγS bound is halfway between Bottom and Top. The nonlinear regression fit was performed using GraphPad Prism® version 3.00 for Windows (GraphPad Software, San Diego, Calif.). Mouse Gastrointestinal Transit (GIT) Assay (in vivo Assay)

T1 sequence (P35372 whole entry): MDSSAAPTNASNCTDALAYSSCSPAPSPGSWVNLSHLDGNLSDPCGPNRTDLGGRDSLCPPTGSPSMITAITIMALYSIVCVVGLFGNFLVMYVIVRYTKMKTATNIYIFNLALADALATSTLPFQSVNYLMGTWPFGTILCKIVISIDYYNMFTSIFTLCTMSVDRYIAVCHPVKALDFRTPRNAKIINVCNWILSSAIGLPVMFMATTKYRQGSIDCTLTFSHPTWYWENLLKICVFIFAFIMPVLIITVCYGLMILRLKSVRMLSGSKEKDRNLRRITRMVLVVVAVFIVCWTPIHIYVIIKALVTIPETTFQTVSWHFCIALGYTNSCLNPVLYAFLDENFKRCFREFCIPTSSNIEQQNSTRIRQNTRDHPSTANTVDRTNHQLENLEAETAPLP

| Structure (SMILES) | Ki (μ opioid receptor [1]) [nM] | IC50 (μ opioid receptor [2]) [nM] |
| --- | --- | --- |
| O=C(O)CCCC(=O)N[C@@]12CCC(=O)[C@@H]3Oc4c(O)ccc5c4[C@@]31CCN(CC1CC1)[C@@H]2C5 [Example 85] | 4.1 | 1.1 |
| O=C(O)CNC(=O)/C=C1/CC[C@@]2(O)[C@H]3Cc4ccc(O)c5c4[C@@]2(CCN3CC2CC2)[C@H]1O5 [Example 33, 4,5α-Epoxy-3,14β-dihydroxy-6,6Z(N-acryloylamino-acetic acid)-17-(cyclopropylmethyl)morphinan] | 3 | 21.3 |
| CC(=O)N[C@@]12CC[C@H](NCc3ccccc3)[C@@H]3Oc4c(O)ccc5c4[C@@]31CCN(CC1CC1)[C@@H]2C5 [Example 73, 4,5α-Epoxy-3-hydroxy-14β-acetylamino-6-α-benzylamino-17-(cyclopropylmethyl)morphinan] | 2.8 | 4.2 |
